# Test system: TF expression induced by activated complement in normal primary cells (monocytes or neutrophils)
# Experiment: modified PT (mPT) assay with supernatant of healthy primary cells stimulated with patient serum, with or without complement inhibitor
# Type: cell-based, human
# Description: To test serum for complement activating activity, serum was obtained from patients diagnosed with various disorders. Serum was obtained from patients diagnosed with: antiphospholipid syndrome (APS; n=26), systemic lupus erythymatosus (SLE; n=9), rheumatoid arthritis (n=12), sepsis (n=6), metastatic cancer (n=8) and inherited hypercoagulation (n=9). Serum was also obtained from healthy individuals (n=22).
# Freshly obtained primary cells (monocytes or neutrophils) obtained from healthy donors were suspended in phosphate buffered saline (PBS). In parallel, the cells were stimulated with patient serum and with patient serum that was pre-incubated for 30 minutes with either 15 μM Compstatin or 10 μM C5aR antagonist to inhibit complement. The cells were incubated with serum for approximately 2 to 2.5 hours at 37° C. Subsequently, supernatant from the serum-incubated cells was obtained by centrifugation at 1000×g for 10 minutes. The supernatant was then assessed in a modified PT assay.
# In a standard PT assay, 100 μl patient plasma is mixed with 200 μl commercial thromboplastin (International Sensitivity Index (ISI) 1.0 or ISI 1.9), and time of clotting is assessed by measuring in seconds the time required for clot formation after thromboplastin is added. In the modified PT (mPT) assay, 100 μl platelet-poor plasma (PPP) from a healthy subject was used and about 120-130 μl of the commercial thromboplastin (also called tissue factor) was replaced with PBS (the total volume of clotting reaction remains stable, at 300 μl) in order to obtain a technical prolongation of the clotting time from about 12-13 seconds to about 32-37 seconds. To test the effect of the test serum on TF expression of healthy primary blood cells, the about 120-130 μl PBS was replaced with about 120-130 μl of supernatant from the primary cells stimulated with test serum. All mPT assays were performed independently by two experienced physicians.
# When complement is activated in the test serum, the use of 120-130 μl supernatant in the mPT test reduces the clotting time from about 32-37 sec to about 18-20 seconds. This reduction in clotting time occurs because TF expression is induced in the normal primary cells by the activated complement. When the activated complement in the test serum has been inhibited (e.g., with Compstatin or C5aR antagonist), TF expression is not induced by activated complement in normal primary cells and the mPT remains unchanged (about 32 to about 37 seconds).
structure (smiles),measurement,setting,value
"CC[C@H](C)[C@H](N)C(=O)N[C@H]1CSSC[C@@H](C(=O)N[C@H](C(N)=O)[C@@H](C)O)NC(=O)[C@H](CCCN=C(N)N)NC(=O)[C@H](Cc2cnc[nH]2)NC(=O)[C@H](Cc2cnc[nH]2)NC(=O)CNC(=O)[C@H](Cc2c[nH]c3ccccc23)NC(=O)[C@H](CC(=O)O)NC(=O)[C@H](CCC(N)=O)NC(=O)[C@H](C(C)C)NC(=O)[C@H](C(C)C)NC1=O [Compstatin, Ile-Cys-Val-Val-Gln-Asp-Trp-Gly-His-His-Arg-Cys-Thr]",sensitivity of the mPT test after Compstatin-mediated inhibition of complement (pro-coagulant activity completely abolished),APS and SLE patients,100%
same,Clotting time,"APS serum (n = 26), serum pre-incubated 30 minutes with 15 μM Compstatin or 10 μM C5aR antagonist",31.11 ± 0.26 s
same,Clotting time,"Acute sepsis serum (n = 6), serum pre-incubated 30 minutes with 15 μM Compstatin or 10 μM C5aR antagonist",28.97 ± 0.80 s
same,Clotting time,"Healthy donor serum (n = 22), serum pre-incubated 30 minutes with 15 μM Compstatin or 10 μM C5aR antagonist",31.19 ± 0.16 s
same,Clotting time,"Inherited hypercoagulation serum (n = 9), serum pre-incubated 30 minutes with 15 μM Compstatin",29.01 ± 1.08 s
same,Clotting time,"Metastatic cancer serum (n = 8), serum pre-incubated 30 minutes with 15 μM Compstatin",26.07 ± 1.21 s
same,Clotting time,"Rheumatoid arthritis serum (n = 12), serum pre-incubated 30 minutes with 15 μM Compstatin",30.26 ± 0.81 s
same,Clotting time,"SLE serum (n = 9), serum pre-incubated 30 minutes with 15 μM Compstatin or 10 μM C5aR antagonist",31.26 ± 0.17 s
same,"difference in clotting time before and after inhibition in acute sepsis, as share of the time difference for either APS or SLE serum",acute sepsis serum versus APS or SLE serum,about 30%
same,effect of treatment on clotting time,sera from septic patients,partial inhibition

# — patent US8563259B2, “Complement-mediated thrombophilic assay” (The Trustees of the University of Pennsylvania, priority 2007, dated 2013)
